Activity calls are given as the source filed them. No cut-off for these calls is given here.
Tests used:
[1] = tested on: Candida albicans; experiment: Antifungal activity against Candida albicans ATCC 14053 at 200 ug/disk by standard disk assay; assay type: functional, organism-based
[2] = tested on: Bacillus subtilis; experiment: Antibacterial activity against Bacillus subtilis ATCC 6051 at 200 ug/disk by standard disk assay; assay type: functional; details: for zone of inhibition at 200 µg/disc: read-out: IZ
[3] = tested on: Staphylococcus aureus; experiment: Antibacterial activity against Staphylococcus aureus ATCC 29213 at 200 ug/disk by standard disk assay; assay type: functional

Structure (SMILES) | Activity [1] | zone of inhibition at 200 µg/disc [2] [mm] | zone of inhibition at 200 µg/disc ([3]; read-out: IZ) [mm] | Activity [2] | Activity [3]
C=C1CC[C@H]2C[C@@H]1[C@@]21CO[C@]2(C=C(C)C(=O)O2)[C@H]1O [MASSARINOLIN A] | inactive | 17 | 10 |  | 
C/C(=C\[C@@H](O)C[C@@]12CO[C@]3(C)CC[C@H]1C[C@H]23)C(=O)O [MASSARINOLIN B] | inactive | 8 |  |  | 
C=C1CC[C@H]2C[C@@H]1[C@]2(CO)C[C@H](O)/C=C(\C)C(=O)O | inactive |  |  | inactive | inactive

From ChEMBL document CHEMBL1141816, “Massarinolins A-C: new bioactive sesquiterpenoids from the aquatic fungus massarina tunicata” (1999)
